# Experimental data as given in publication PMC3236199, “Development of Derivatives of 3, 3′-Diindolylmethane as Potent Leishmania donovani Bi-Subunit Topoisomerase IB Poisons” (PLoS ONE, 2011).
# Tests used:
# [1] = system: DIM resistant parasites (LdDR50); test: DNA fragmentation assay (cell death detection ELISA), DIM resistant; type: cell-based, Leishmania donovani; details: 20 µM
# Method: Leishmanial cells were cultured in 24-well plates and treated with 20 µM of DIM, DPDIM, DMDIM and DMODIM for different times. Samples were collected at requisite time points and subjected to measurement of DNA fragmentations. Cytoplasmic histone-associated DNA fragments (mononucleosome and oligonucleosomes) formed during apoptosis were detected using a cell death detection ELISA kit (Roche Biochemicals) by spectrophotometric measurement of microtiter plates in a Thermo MULTISKAN EX plate reader at 405 nm. The relative percentages (with respect to samples treated with micrococcal nuclease and normalized to percentage values) were plotted as units of time or drug concentrations as described previously.
# The internucleosomal DNA digestion by an endogenous nuclease (genomic DNA fragmentation) is considered as a hallmark of apoptotic cell death. […] To investigate whether these derivatives also do the same, we performed the DNA fragmentation assay with wild type L. donovani AG83 promastigotes and DIM resistant parasites (Fig. 4) by ELISA as described in Materials and Methods. […] DNA fragmentation increased to 85%, 89%, 81% and 71% at 8 h of treatment in wild type parasites. The DIM resistant parasites (LdDR50) have much less effect in DNA fragmentation (13% at 6 h and 17% at 8 h) when treated with 20 µM DIM. On the other hand the extents of DNA fragmentations were 63%, 51% and 40% at 6 h treatment with DPDIM, DMDIM and DMODIM respectively. The extent of fragmentation increased to 82%, 74% and 65% after treatment for 8 h with the drugs as mentioned above.
# Figure 4 DIM derivatives-induced fragmentation of genomic DNA in wild type and DIM resistant parasites. Relative percentage of DNA fragmentation measured by cell death detection ELISA kit in L. donovani promastigotes treated with DIM, DPDIM, DMDIM and DMODIM. The experiments were performed three times and representative data from one of these experiments as means ± SD.
# LdTOP1LS = test: Equilibrium (duplex oligonucleotide) cleavage assay, wild type enzyme; type: biochemical, Leishmania donovani; details: 20 µM, with respect to cleavable complex formed without drug with wild type enzyme
# Method: The 25-mer oligonucleotide 1 (5′-GAAAAAAGACTT↓AGAAAAATTTTTA-3′) was 5′-end labeled with [γ^32P] ATP and annealed with oligonucleotide 2 (5′-[…]-3′) to make a duplex oligonucleotide containing a topoisomerase I binding motif as described. Cleavage assay was carried out using 20-fold molar excess of enzymes over duplex 25-mer DNA (enzymes, 0.2 µM; DNA, 10 nM). The reactions were carried out in standard assay condition in the absence or presence of drugs at 37°C for 30 min. All the reactions were stopped by addition of SDS to a final concentration of 2% (w/v), digested with 5 µl of 1 mg/ml trypsin and analyzed by 12% denaturing polyacrylamide gel followed by autoradiography. The amount of strand cleavage in the presence of drugs was determined by densitometry of the film as described.
# The effect of DIM and its derivatives on L. donovani topoisomerase I was examined by plasmid DNA cleavage assay as described. The topoisomerase reaction has three general mechanistic steps: (i) binding of enzyme to the substrate DNA, (ii) single strand breakage and subsequent strand rotation through the break leading to change in linking number, and (iii) strand religation. The second step of reaction is the introduction of a single-stranded nick in the phosphodiester bond of the DNA, through which an intact strand is allowed to pass. During this process, a covalent bond is formed between the 3′-phosphoryl group of the DNA backbone and the tyrosine residue at the active site of topoisomerase I. Topoisomerase inhibition can be achieved by prevention of enzyme-DNA binary complex formation or by stabilization of enzyme-DNA cleavable complex. To investigate the ability of DIM-derivatives to stabilize the cleavable complex formation between enzyme and oligonucleotide containing a topoisomerase IB specific binding motif we carried out plasmid cleavage assay as described previously. Cleavage assay was performed with LdTOP1LS and pHOT1 DNA containing a topoisomerase IB specific binding motif as described in ‘Materials and Methods’. […]
Structure (SMILES),fragmentation of DNA ([1]; 6 h) [%],fragmentation of DNA ([1]; 8 h) [%],extent of cleavage (LdTOP1LS)
"Cc1[nH]c2ccccc2c1Cc1c(C)[nH]c2ccccc12 [DMDIM, 2,2′-dimethyl 3,3′-diindolyl methane]",51,74,approximately 61%
"c1ccc2c(Cc3c[nH]c4ccccc34)c[nH]c2c1 [DIM, 3, 3′-diindolyl methane, reference compound]",13,17,
"COc1ccc2[nH]cc(Cc3c[nH]c4ccc(OC)cc34)c2c1 [DMODIM, 5,5′-dimethoxy 3,3′-diindolyl methane]",40,65,~56%
"c1ccc(-c2[nH]c3ccccc3c2Cc2c(-c3ccccc3)[nH]c3ccccc23)cc1 [DPDIM, 2,2′-diphenyl 3,3′-diindolyl methane]",63,82,67%
